From patent publication US12343347B2 (Biohaven Pharmaceutical Holding Company Ltd., priority 2012, dated 2025)

Assays:
Format in all cases: in vitro ADME
[1] = Metabolic stability in pooled human liver microsomes; settings: human liver microsomes 0.5 mg/mL, 1 uM, NADPH, 37° C.
Description: (§1) Metabolic Stability: In vitro metabolic stability was determined in pooled mouse or human liver microsomes (BD Gentest) at a protein concentration of 0.5 mg/mL in reaction buffer (100 mM KH2PO4, pH 7.4 and 12 mM MgCl2). Each drug candidate was added to a final concentration of 1 uM. This mixture was pre-warmed to 37° C. for 10 minutes prior to starting the reaction with the addition of β-Nicotinamide adenine dinucleotide 2′-phosphate reduced (NADPH) to a final concentration of 1 mM. A parallel incubation lacking NADPH served as the control. After incubation for 30 min at 37° C., the reactions were quenched by the addition of acetonitrile containing 0.1% formic acid and internal standard, vortex mixed for 2 minutes and centrifuged at 4000 rpm for 10 minutes to pellet the precipitated protein. The resulting supernatant containing the drug candidate and its potential metabolites was diluted 5-fold with water containing 0.1% formic acid and submitted to LC-MS/MS analysis. […]
(§2) LC-MS/MS Analysis: An aliquot from each incubation was analyzed by LC-MS/MS with SRM detection in the positive ionization mode using an ABSciex API 5500 QTrap Mass Spectrometer interfaced via the ABSciex Turbo V IonSpray source (ESI) to an Eksigent ExpressHT LC system. […] A fast gradient, from 15 to 85% organic in 2.5 minutes, with run time of 5.0 minutes, and flow rate of 50 uL/min was utilized. Peak areas were integrated using MultiQuant v2.0 software from ABSciex.

[2] = Plasma stability in fresh human plasma; settings: 1 uM, 37° C.
Description: (§3) Plasma Stability: Assessment of plasma stability was carried out by individual incubations of drug candidates in fresh mouse or human control plasma at a concentration of 1 uM for 1 hour at 37° C. After which, the samples were de-proteinized by addition of 2 volumes of acetonitrile containing 0.1% formic acid and internal standard, vortex mixed for 2 minutes and centrifuged at 4000 rpm for 10 minutes to pellet precipitated protein. The resulting supernatant containing the drug candidates was diluted 5-fold with water containing 0.1% formic acid and submitted to LC-MS/MS analysis. All determinations were done in triplicate. […]
as §2

[3] = Plasma stability in fresh mouse plasma; settings: 1 uM, 37° C.
Description: as §3, §2

[4] = Metabolic stability in pooled mouse liver microsomes; settings: mouse liver microsomes 0.5 mg/mL, 1 uM, NADPH, 37° C.
Description: as §1, §2

[5] = Stability in Simulated Intestinal Fluid (SIF); settings: SIF:acetonitrile 9:1, 0.01 mg/mL, 37° C.
Description: (§4) Stability in Simulated Gastric Fluid (SGF) and Simulated Intestinal Fluid (SIF). Procedure from Baudy et. al. (J. Med. Chem. 2009, 52, 771-778) used. The physiological stability of pro-drugs was determined by examining the stability of the compound in SGF, and SIF at 37° C. The compounds were prepared in a 9:1 mixture of the appropriate test component (SGF, SIF) and acetonitrile to a final concentration of 0.01 mg/mL. The samples were thoroughly mixed and maintained at 37° C. Each sample was injected consecutively onto an Agilent 1100 system (Luna C18, 3 μm, 50 mm×3 mm; 1 mL/min; mobile phase of 0.1% trifluoroacetic acid in water/0.1% trifluoroacetic acid in acetonitrile) after a 3 h period. The percent remaining of pro-drug was calculated by comparing the area of pro-drug compound versus riluzole generated. The identities of the parent compounds and conversion products were confirmed by LC/MS.

[6] = Stability in Simulated Gastric Fluid (SGF); settings: SGF:acetonitrile 9:1, 0.01 mg/mL, 37° C.
Description: as §4

NCC(=O)Nc1nc2ccc(OC(F)(F)F)cc2s1 [Cpd 1, 2-Amino-N-(6-trifluoromethoxy-benzothiazol-2-yl)-acetamide]
Metabolic Stability human (30 minutes), percent of pro-drug metabolized to riluzole [1]: 7%
Plasma Stability Human (1 hour), percent of pro-drug metabolized to riluzole [2]: 3%
Plasma Stability mouse (1 hour), percent of pro-drug metabolized to riluzole [3]: 11%
Metabolic Stability mouse (30 minutes), percent of pro-drug metabolized to riluzole [4]: 4%

C[C@@H](N)C(=O)Nc1nc2ccc(OC(F)(F)F)cc2s1 [Cpd 2, (R)-2-Amino-N-(6-trifluoromethoxy-benzothiazol-2-yl)-propionamide]
Metabolic Stability human (30 minutes), percent of pro-drug metabolized to riluzole [1]: 4%
SIF (3 hours), percent of pro-drug metabolized to riluzole [5]: 50%
Plasma Stability Human (1 hour), percent of pro-drug metabolized to riluzole [2]: 15%
Plasma Stability mouse (1 hour), percent of pro-drug metabolized to riluzole [3]: 36%
SGF (3 hours), percent of pro-drug metabolized to riluzole [6]: 0%
Metabolic Stability mouse (30 minutes), percent of pro-drug metabolized to riluzole [4]: 10%

N[C@H](Cc1ccccc1)C(=O)Nc1nc2ccc(OC(F)(F)F)cc2s1 [Cpd 4, (R)-2-Amino-3-phenyl-N-(6-trifluoromethoxy-benzothiazol-2-yl)-propionamide]
Metabolic Stability human (30 minutes), percent of pro-drug metabolized to riluzole [1]: 18%
SIF (3 hours), percent of pro-drug metabolized to riluzole [5]: 0%
Plasma Stability Human (1 hour), percent of pro-drug metabolized to riluzole [2]: 6%
Plasma Stability mouse (1 hour), percent of pro-drug metabolized to riluzole [3]: 47%
SGF (3 hours), percent of pro-drug metabolized to riluzole [6]: 3%
Metabolic Stability mouse (30 minutes), percent of pro-drug metabolized to riluzole [4]: 12%

N[C@H](COCc1ccccc1)C(=O)Nc1nc2ccc(OC(F)(F)F)cc2s1 [Cpd 5, (R)-2-Amino-3-benzyloxy-N-(6-trifluoromethoxy-benzothiazol-2-yl)-propionamide]
Metabolic Stability human (30 minutes), percent of pro-drug metabolized to riluzole [1]: 0%
Plasma Stability Human (1 hour), percent of pro-drug metabolized to riluzole [2]: 3%
Plasma Stability mouse (1 hour), percent of pro-drug metabolized to riluzole [3]: 25%
Metabolic Stability mouse (30 minutes), percent of pro-drug metabolized to riluzole [4]: 24%

C[C@H](N)C(=O)Nc1nc2ccc(OC(F)(F)F)cc2s1 [Cpd 7, (S)-2-Amino-N-(6-trifluoromethoxy-benzothiazol-2-yl)-propionamide]
Metabolic Stability human (30 minutes), percent of pro-drug metabolized to riluzole [1]: 0%
SIF (3 hours), percent of pro-drug metabolized to riluzole [5]: 50%
Plasma Stability Human (1 hour), percent of pro-drug metabolized to riluzole [2]: 10%
Plasma Stability mouse (1 hour), percent of pro-drug metabolized to riluzole [3]: 28%
SGF (3 hours), percent of pro-drug metabolized to riluzole [6]: 0%
Metabolic Stability mouse (30 minutes), percent of pro-drug metabolized to riluzole [4]: 1%

N[C@@H](Cc1ccccc1)C(=O)Nc1nc2ccc(OC(F)(F)F)cc2s1 [Cpd 9, (S)-2-Amino-3-phenyl-N-(6-trifluoromethoxy-benzothiazol-2-yl)-propionamide]
Metabolic Stability human (30 minutes), percent of pro-drug metabolized to riluzole [1]: 0%
Plasma Stability Human (1 hour), percent of pro-drug metabolized to riluzole [2]: 7%
Plasma Stability mouse (1 hour), percent of pro-drug metabolized to riluzole [3]: 0%
Metabolic Stability mouse (30 minutes), percent of pro-drug metabolized to riluzole [4]: 2%

N[C@@H](COCc1ccccc1)C(=O)Nc1nc2ccc(OC(F)(F)F)cc2s1 [Cpd 10, (S)-2-Amino-3-benzyloxy-N-(6-trifluoromethoxy-benzothiazol-2-yl)-propionamide]
Metabolic Stability human (30 minutes), percent of pro-drug metabolized to riluzole [1]: 15%
SIF (3 hours), percent of pro-drug metabolized to riluzole [5]: 0%
Plasma Stability Human (1 hour), percent of pro-drug metabolized to riluzole [2]: 9%
Plasma Stability mouse (1 hour), percent of pro-drug metabolized to riluzole [3]: 52%
SGF (3 hours), percent of pro-drug metabolized to riluzole [6]: 0%
Metabolic Stability mouse (30 minutes), percent of pro-drug metabolized to riluzole [4]: 0%

CC(C)[C@H](N)C(=O)Nc1nc2ccc(OC(F)(F)F)cc2s1 [Cpd 11, (S)-2-Amino-3-methyl-N-(6-trifluoromethoxy-benzothiazol-2-yl)-butyramide]
Metabolic Stability human (30 minutes), percent of pro-drug metabolized to riluzole [1]: 6%
SIF (3 hours), percent of pro-drug metabolized to riluzole [5]: 40%
Plasma Stability Human (1 hour), percent of pro-drug metabolized to riluzole [2]: 11%
Plasma Stability mouse (1 hour), percent of pro-drug metabolized to riluzole [3]: 45%
SGF (3 hours), percent of pro-drug metabolized to riluzole [6]: 0%
Metabolic Stability mouse (30 minutes), percent of pro-drug metabolized to riluzole [4]: 40%

COC(=O)Nc1nc2ccc(OC(F)(F)F)cc2s1 [Cpd 12, (6-Trifluoromethoxy-benzothiazol-2-yl)-carbamic acid methyl ester]
Metabolic Stability human (30 minutes), percent of pro-drug metabolized to riluzole [1]: 0%
SIF (3 hours), percent of pro-drug metabolized to riluzole [5]: 0%
Plasma Stability Human (1 hour), percent of pro-drug metabolized to riluzole [2]: 15%
Plasma Stability mouse (1 hour), percent of pro-drug metabolized to riluzole [3]: 0%
SGF (3 hours), percent of pro-drug metabolized to riluzole [6]: 0%
Metabolic Stability mouse (30 minutes), percent of pro-drug metabolized to riluzole [4]: 10%

CCOC(=O)Nc1nc2ccc(OC(F)(F)F)cc2s1 [Cpd 13, (6-Trifluoromethoxy-benzothiazol-2-yl)-carbamic acid ethyl ester]
Metabolic Stability human (30 minutes), percent of pro-drug metabolized to riluzole [1]: 7%
SIF (3 hours), percent of pro-drug metabolized to riluzole [5]: 0%
Plasma Stability Human (1 hour), percent of pro-drug metabolized to riluzole [2]: 0%
Plasma Stability mouse (1 hour), percent of pro-drug metabolized to riluzole [3]: 0%
SGF (3 hours), percent of pro-drug metabolized to riluzole [6]: 0%
Metabolic Stability mouse (30 minutes), percent of pro-drug metabolized to riluzole [4]: 8%

CCCOC(=O)Nc1nc2ccc(OC(F)(F)F)cc2s1 [Cpd 14, (6-Trifluoromethoxy-benzothiazol-2-yl)-carbamic acid propyl ester]
Metabolic Stability human (30 minutes), percent of pro-drug metabolized to riluzole [1]: 34%
SIF (3 hours), percent of pro-drug metabolized to riluzole [5]: 0%
Plasma Stability Human (1 hour), percent of pro-drug metabolized to riluzole [2]: 0%
Plasma Stability mouse (1 hour), percent of pro-drug metabolized to riluzole [3]: 0%
SGF (3 hours), percent of pro-drug metabolized to riluzole [6]: 0%
Metabolic Stability mouse (30 minutes), percent of pro-drug metabolized to riluzole [4]: 15%

CCCCOC(=O)Nc1nc2ccc(OC(F)(F)F)cc2s1 [Cpd 15, (6-Trifluoromethoxy-benzothiazol-2-yl)-carbamic acid butyl ester]
Metabolic Stability human (30 minutes), percent of pro-drug metabolized to riluzole [1]: 13%
SIF (3 hours), percent of pro-drug metabolized to riluzole [5]: 0%
Plasma Stability Human (1 hour), percent of pro-drug metabolized to riluzole [2]: 0%
Plasma Stability mouse (1 hour), percent of pro-drug metabolized to riluzole [3]: 9%
SGF (3 hours), percent of pro-drug metabolized to riluzole [6]: 0%
Metabolic Stability mouse (30 minutes), percent of pro-drug metabolized to riluzole [4]: 53%

CCCCCCOC(=O)Nc1nc2ccc(OC(F)(F)F)cc2s1 [Cpd 17, (6-Trifluoromethoxy-benzothiazol-2-yl)-carbamic acid hexyl ester]
SGF (3 hours), percent of pro-drug metabolized to riluzole [6]: 0%

O=C(CCC(=O)Nc1nc2ccc(OC(F)(F)F)cc2s1)NCCN1CCOCC1 [Cpd 24, N-(2-Morpholin-4-yl-ethyl)-N′-(6-trifluoromethoxy-benzothiazol-2-yl)-succinamide]
SIF (3 hours), percent of pro-drug metabolized to riluzole [5]: 60%
SGF (3 hours), percent of pro-drug metabolized to riluzole [6]: 0%

NCC1(CC(=O)Nc2nc3ccc(OC(F)(F)F)cc3s2)CCCCC1 [Cpd 29, 2-(1-Aminomethyl-cyclohexyl)-N-(6-trifluoromethoxy-benzothiazol-2-yl)-acetamide]
SIF (3 hours), percent of pro-drug metabolized to riluzole [5]: 50%
SGF (3 hours), percent of pro-drug metabolized to riluzole [6]: 0%
